Activity calls are given as the source filed them. The calls are words filed in the database; no cut-off is given here.
How the values were obtained:
[1] = Inhibition of Staphylococcus aureus USA300 LAC quorum sensing system Agr assessed as reduction in AIP production measured after 5 hrs by UPLC-MS analysis; parameters: species or system Staphylococcus aureus subsp. aureus USA300
[2] = target: T1, Accessory gene regulator protein A (Staphylococcus aureus) (UniProt P0A0I7); test: Inhibition of Staphylococcus aureus USA300 LAC quorum sensing system AgrA assessed as reduction in psma transcription at 2.9 to 16 uM after 5 hrs by RNA protect cell reagent based qRT-PCR analysis; conditions: Staphylococcus aureus subsp. aureus USA300
T1 sequence (whole entry): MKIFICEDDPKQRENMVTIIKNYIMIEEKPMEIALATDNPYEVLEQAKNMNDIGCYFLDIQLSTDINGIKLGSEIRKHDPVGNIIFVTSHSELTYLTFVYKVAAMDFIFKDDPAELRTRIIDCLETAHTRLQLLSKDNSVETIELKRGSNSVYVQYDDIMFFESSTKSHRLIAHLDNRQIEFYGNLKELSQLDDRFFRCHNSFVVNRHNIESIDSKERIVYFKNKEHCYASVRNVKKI

[3] = tested on: Staphylococcus aureus subsp. aureus USA300; test: Inhibition of Staphylococcus aureus USA300 LAC quorum sensing system Agr assessed as reduction in hla transcription at 2.9 to 16 uM after 5 hrs by RNA protect cell reagent based qRT-PCR analysis
[4] = target: T1, Accessory gene regulator protein A (Staphylococcus aureus); test: Inhibition of Staphylococcus aureus USA300 LAC quorum sensing system AgrA assessed as reduction in RNA3 transcription at 9 to 16 uM after 5 hrs by RNA protect cell reagent based qRT-PCR analysis; conditions: Staphylococcus aureus subsp. aureus USA300
Staphylococcus aureus = test: Effect on growth of Staphylococcus aureus USA300 LAC measured at 1 hr interval for 5 hrs

| SMILES | IC50 [1] [µM] | inhibition [2] | inhibition [3] | inhibition [4] | Activity (Staphylococcus aureus) |
| --- | --- | --- | --- | --- | --- |
| CC(C)=CC1c2c(O)cc(C)cc2Oc2cc(C)cc(O)c21 | 6.3 to 12.5 |  |  |  |  |
| O=C1c2cc(O)cc(O)c2C(=O)c2c(O)cc(CO)cc21 | 6.3 to 12.5 |  |  |  |  |
| CCCCC/C=C/C1=C(CO)[C@@H](O)[C@H]2O[C@@]2(C/C=C(\C)C(=O)O)C1=O | 1.3 |  |  |  |  |
| CC(C)=C[C@H]1c2c(O)cc(C)cc2Oc2cc(C)c(C(=O)O)c(O)c21 | 0.3 | Active | Active | Active | Non-Toxic |
| CC(C)=CCc1c(O)cc(C)cc1Oc1cc(C)c(C(=O)O)c(O)c1 | 4.6 |  |  |  |  |

Source: ChEMBL document CHEMBL4422677, “Prenylated Diresorcinols Inhibit Bacterial Quorum Sensing” (J Nat Prod, 2019)
